Assay results from ChEMBL document CHEMBL3045084, “Synthesis, antitubercular activity, and QSAR analysis of substituted nitroaryl analogs: chalcone, pyrazole, isoxazole, and pyrimidines” (2013).
Values after ≈ are worked out from the molar mass of the structure shown.

Tested on: Mycobacterium tuberculosis
Assay: Antitubercular activity against Mycobacterium tuberculosis H37Rv ATCC 27294 assessed as growth inhibition after 28 days by agar dilution method
Assay type: functional
Conditions: for MIC: Mycobacterium tuberculosis, H37Rv ATCC 27294, 672 h

Row | Structure (SMILES) | -logMIC | MIC
1 | O=C1N=C(c2ccc([N+](=O)[O-])cc2)CC(c2ccc(F)cc2)N1 (stereo not drawn) | 4.697 | 20 µM (≈ 6.26 µg/mL)
2 | O=C1N=C(c2ccc([N+](=O)[O-])cc2)CC(c2ccc(Cl)cc2)N1 (stereo not drawn) | 4.419 | 38 µM (≈ 12.5 µg/mL)
3 | O=[N+]([O-])c1ccc(C2=NOC(c3ccc(Cl)cc3)C2)cc1 (stereo not drawn) | 4.08 | 83.3 µM (≈ 25.2 µg/mL)
4 | O=C1N=C(c2ccc([N+](=O)[O-])cc2)CC(c2cccc(Cl)c2)N1 (stereo not drawn) | 4.419 | 38 µM (≈ 12.5 µg/mL)
5 | COc1ccc(C2CC(c3ccc([N+](=O)[O-])cc3)=NC(=S)N2)cc1 (stereo not drawn) | 3.531 | 293 µM (≈ 100 µg/mL)
6 | O=[N+]([O-])c1ccc(C2=NOC(c3ccc(F)cc3)C2)cc1 (stereo not drawn) | 4.357 | 44 µM (≈ 12.6 µg/mL)
7 | COc1ccc(OC)c(C2CC(c3ccc([N+](=O)[O-])cc3)=NC(=S)N2)c1 (stereo not drawn) | 3.869 | 135 µM (≈ 50.1 µg/mL)
8 | COc1cc(C2CC(c3ccc([N+](=O)[O-])cc3)=NC(=S)N2)cc(OC)c1OC (stereo not drawn) | 3.601 | 249 µM (≈ 100 µg/mL)
9 | COc1cc(C2CC(c3ccc([N+](=O)[O-])cc3)=NC(=O)N2)cc(OC)c1OC (stereo not drawn) | 3.585 | 260 µM (≈ 100 µg/mL)
10 | O=[N+]([O-])c1ccc(C2=NNC(c3ccc(Cl)cc3)C2)cc1 (stereo not drawn) | 4.079 | 83.6 µM (≈ 25.2 µg/mL)
11 | O=C(/C=C/c1cccc(Cl)c1)c1ccc([N+](=O)[O-])cc1 | 4.362 | 43.5 µM (≈ 12.5 µg/mL)
12 | COc1cccc(C2CC(c3ccc([N+](=O)[O-])cc3)=NC(=O)N2)c1 (stereo not drawn) | 3.51 | 308 µM (≈ 100 µg/mL)
13 | COc1ccc(C2CC(c3ccc([N+](=O)[O-])cc3)=NC(=O)N2)cc1 (stereo not drawn) | 3.811 | 154 µM (≈ 50.1 µg/mL)
14 | CN(C)c1ccc(/C=C/C(=O)c2ccc([N+](=O)[O-])cc2)cc1 | 4.074 | 84.5 µM (≈ 25 µg/mL)
15 | O=[N+]([O-])c1ccc(C2=NNC(c3ccc(Cl)cc3Cl)C2)cc1 (stereo not drawn) | 4.427 | 37.4 µM (≈ 12.6 µg/mL)
16 | COc1ccc(OC)c(C2CC(c3ccc([N+](=O)[O-])cc3)=NC(=O)N2)c1 (stereo not drawn) |  | > 282 µM
17 | O=C(/C=C/c1ccc(F)cc1)c1ccc([N+](=O)[O-])cc1 | 4.938 | 11.6 µM (≈ 3.13 µg/mL)
18 | O=C(/C=C/c1ccc(Cl)cc1)c1ccc([N+](=O)[O-])cc1 | 4.362 | 43.5 µM (≈ 12.5 µg/mL)
19 | O=[N+]([O-])c1ccc(C2=NOC(c3cccc(Cl)c3)C2)cc1 (stereo not drawn) |  | > 83.3 µM
20 | COc1ccc(C2CC(c3ccc([N+](=O)[O-])cc3)=NC(=S)N2)cc1OC (stereo not drawn) | 3.869 | 135 µM (≈ 50.1 µg/mL)
21 | O=C(/C=C/c1ccc(Br)cc1)c1ccc([N+](=O)[O-])cc1 | 5.026 | 9.43 µM (≈ 3.13 µg/mL)
22 | COc1ccc(/C=C/C(=O)c2ccc([N+](=O)[O-])cc2)cc1 |  | > 88.3 µM
23 | COc1ccc(/C=C/C(=O)c2ccc([N+](=O)[O-])cc2)cc1OC |  | > 79.9 µM
24 | COc1ccc(C2CC(c3ccc([N+](=O)[O-])cc3)=NC(=O)N2)cc1OC (stereo not drawn) | 3.548 | 282 µM (≈ 100 µg/mL)
25 | O=C1N=C(c2ccc([N+](=O)[O-])cc2)CC(c2ccc(Cl)cc2Cl)N1 (stereo not drawn) | 4.462 | 34.3 µM (≈ 12.5 µg/mL)
26 | COc1ccc(OC)c(/C=C/C(=O)c2ccc([N+](=O)[O-])cc2)c1 | 4.098 | 79.9 µM (≈ 25 µg/mL)

Row | Structure (SMILES) | -logMIC | MIC
27 | NNC(=O)c1ccncc1 [ISONIAZID] | 6.447 | 0.357 µM (≈ 0.049 µg/mL)
28 | O=[N+]([O-])c1ccc(C2=NC(=S)NC(c3ccc(Cl)cc3Cl)C2)cc1 (stereo not drawn) | 4.481 | 32.9 µM (≈ 12.5 µg/mL)
29 | COc1cccc(/C=C/C(=O)c2ccc([N+](=O)[O-])cc2)c1 | 4.054 | 88.3 µM (≈ 25 µg/mL)
30 | O=[N+]([O-])c1ccc(C2=NC(=S)NC(c3cccc(Cl)c3)C2)cc1 (stereo not drawn) | 4.138 | 72.5 µM (≈ 25.1 µg/mL)
31 | COc1ccc(C2CC(c3ccc([N+](=O)[O-])cc3)=NN2)cc1 (stereo not drawn) |  | > 339 µM
32 | CC[C@@H](CO)NCCN[C@@H](CC)CO [ETHAMBUTOL] | 5.117 | 7.63 µM (≈ 1.56 µg/mL)
33 | CO[C@H]1/C=C/O[C@@]2(C)Oc3c(C)c(O)c4c(O)c(c(/C=N/N5CCN(C)CC5)c(O)c4c3C2=O)NC(=O)/C(C)=C\C=C\[C@H](C)[C@H](O)[C@@H](C)[C@@H](O)[C@@H](C)[C@H](OC(C)=O)[C@@H]1C [RIFAMPIN] | 6.924 | 0.119 µM (≈ 0.0979 µg/mL)
34 | O=[N+]([O-])c1ccc(C2=NNC(c3ccc(F)cc3)C2)cc1 (stereo not drawn) | 4.355 | 44.2 µM (≈ 12.6 µg/mL)
35 | COc1ccc(OC)c(C2CC(c3ccc([N+](=O)[O-])cc3)=NN2)c1 (stereo not drawn) | 3.813 | 154 µM (≈ 50.4 µg/mL)
36 | O=[N+]([O-])c1ccc(C2=NC(=S)NC(c3ccc(Br)cc3)C2)cc1 (stereo not drawn) | 4.492 | 32 µM (≈ 12.5 µg/mL)
37 | O=[N+]([O-])c1ccc(C2=NC(=S)NC(c3ccc(Cl)cc3)C2)cc1 (stereo not drawn) | 4.439 | 36.2 µM (≈ 12.5 µg/mL)
38 | O=C(/C=C/c1ccc(Cl)cc1Cl)c1ccc([N+](=O)[O-])cc1 | 5.315 | 4.84 µM (≈ 1.56 µg/mL)
39 | COc1cccc(C2CC(c3ccc([N+](=O)[O-])cc3)=NO2)c1 (stereo not drawn) |  | > 169 µM
40 | COc1cc(C2CC(c3ccc([N+](=O)[O-])cc3)=NN2)cc(OC)c1OC (stereo not drawn) | 3.852 | 141 µM (≈ 50.3 µg/mL)
41 | O=[N+]([O-])c1ccc(C2=NNC(c3cccc(Cl)c3)C2)cc1 (stereo not drawn) | 4.079 | 83.6 µM (≈ 25.2 µg/mL)
42 | O=C1N=C(c2ccc([N+](=O)[O-])cc2)CC(c2ccc(Br)cc2)N1 (stereo not drawn) | 4.474 | 33.4 µM (≈ 12.5 µg/mL)
43 | CN(C)c1ccc(C2CC(c3ccc([N+](=O)[O-])cc3)=NC(=O)N2)cc1 (stereo not drawn) | 3.527 | 296 µM (≈ 100 µg/mL)
44 | COc1ccc(C2CC(c3ccc([N+](=O)[O-])cc3)=NO2)cc1OC (stereo not drawn) | 4.116 | 76.7 µM (≈ 25.2 µg/mL)
45 | COc1cccc(C2CC(c3ccc([N+](=O)[O-])cc3)=NC(=S)N2)c1 (stereo not drawn) | 3.531 | 293 µM (≈ 100 µg/mL)
46 | O=[N+]([O-])c1ccc(C2=NOC(c3ccc(Cl)cc3Cl)C2)cc1 (stereo not drawn) | 4.428 | 37.3 µM (≈ 12.6 µg/mL)
47 | COc1ccc(C2CC(c3ccc([N+](=O)[O-])cc3)=NN2)cc1OC (stereo not drawn) | 3.813 | 154 µM (≈ 50.4 µg/mL)
48 | O=[N+]([O-])c1ccc(C2=NNC(c3ccc(Br)cc3)C2)cc1 (stereo not drawn) | 4.139 | 72.7 µM (≈ 25.2 µg/mL)
49 | COc1cccc(C2CC(c3ccc([N+](=O)[O-])cc3)=NN2)c1 (stereo not drawn) | 3.47 | 339 µM (≈ 101 µg/mL)
50 | CN(C)c1ccc(C2CC(c3ccc([N+](=O)[O-])cc3)=NN2)cc1 (stereo not drawn) | 3.489 | 323 µM (≈ 100 µg/mL)
51 | CN(C)c1ccc(C2CC(c3ccc([N+](=O)[O-])cc3)=NC(=S)N2)cc1 (stereo not drawn) | 3.848 | 141 µM (≈ 50.1 µg/mL)
52 | O=[N+]([O-])c1ccc(C2=NC(=S)NC(c3ccc(F)cc3)C2)cc1 (stereo not drawn) | 4.418 | 38 µM (≈ 12.5 µg/mL)
